Where two headings read alike, the source gives them in different places.
Columns and labels:
[1] = system: P. falciparum (clone 3D7); experiment: Parasite reduction ratio (PRR) assay; assay type: cell-based, Plasmodium falciparum; details: for Lag phase / Log PRR / PCT99.9% (hours taken to kill 99.9% of the parasites): 10× EC50, 3D7; for Slope: 10× EC50, 3D7 killing profile
Description: The in vitro killing profile of compounds was determined by monitoring the ability of parasites to recover following treatment with a compound of interest using a previously reported approach ([50]), which allowed calculation of the PRR ([51]). […] To quantify the number of viable parasites following treatment, four independent sets of threefold serial dilutions were performed on each sample, which were assayed for the presence or absence of parasites after 28 days using the LDH assay, and the number of viable parasites was determined by the number of wells showing growth. PRR and PCT99.9% were calculated as previously reported ([50]).

[2] = system: P. falciparum stage IV/V gametocytes; experiment: LDH-based gametocyte viability assay; assay type: cell-based, Plasmodium falciparum; details: stage IV to V gametocytes
Description: The pLDH assay was performed on late (>95% stage IV/V) gametocytes. Compound dilutions were placed in triplicate in 96-well plates in a final volume of 100 μl per well. DHA and MMV048 were used as positive drug controls. The gametocyte cultures (100 μl per well) were added to the 96-well plates to achieve a final gametocytemia and hematocrit of 2 and 1%, respectively, in a total incubation volume of 200 μl. Plates were incubated at 37°C for 72 hours, followed by the replacement of spent medium with drug-free culture medium (75% medium change) ([54], [55]). Plates were then incubated for a further 72 hours before assessing viability by measuring pLDH activity. Gametocyte viability was determined spectrophotometrically by measuring the activity of pLDH, according to a modified version of a published protocol ([56]). Briefly, 100 μl of Malstat reagent [0.21% (v/v) Triton X-100, 222 mM L-(+)-lactic acid, 54.5 mM tris, 0.166 mM APAD (Sigma-Aldrich, A5251), adjusted to pH 9 with 1 M NaOH] was transferred into a clean 96-well plate. A fixed volume of 20 μl of parasite suspension per well was added to the Malstat plate, followed by the addition of 25 μl of PES/NBT (0.239 mM phenazine ethosulfate and 1.96 mM nitro blue tetrazolium chloride). Absorbance was measured with a Multiskan Ascent 354 multiplate scanner (Thermo LabSystems, Finland) at 620 nm.

[3] = system: P. falciparum stage V gametocytes (male gamete formation); experiment: Exflagellation (male gamete formation) inhibition assay; assay type: cell-based, Plasmodium falciparum; details: 2 μM, 48 hours
Description: The exflagellation inhibition assay was performed by capturing movement of exflagellation centers over time by video microscopy [adapted from a reported protocol ([52])]. For this carry-over format, mature stage V gametocytes were treated with 2 μM of each compound for 48 hours before induction of exflagellation in the presence of compound. To evaluate compound dose response, gametocytes were treated similarly at a set of concentrations representing a fourfold serial dilution. Mature gametocyte cultures (>95% stage V; 500 μl) were centrifuged at 3500 rpm for 30 s, and the pellet was resuspended in 30 μl of ookinete medium [RPMI 1640 medium containing L-glutamine (Sigma-Aldrich, R6504), gentamycin (0.024 mg/ml; HyClone, SV30080.01), 202 μM hypoxanthine (Sigma-Aldrich, H9636), 25 mM Hepes (Sigma-Aldrich, H4034), 0.2% glucose (Sigma-Aldrich, G6152), and 0.5% (w/v) AlbuMAX II (Invitrogen, Paisley, UK), supplemented with 100 μM XA and 20% human serum]. The activated culture (10 μl) was introduced into a Neubauer chamber and placed on the microscope platform to settle homogenously. Time was noted as time zero (T0), and the chamber was incubated at room temperature. Movement was recorded by video microscopy using a Carl Zeiss NT 6V/10W Stab microscope, fitted with a MicroCapture camera at 10× magnification, and then quantified by a semiautomated method, a modification of the method described previously ([53]). A series of 15 videos of 8 to 10 s each were captured at random locations between 15 and 22.5 min after incubation. Each video was analyzed using Icy bioimage analysis software to quantify the number of exflagellating centers. Compound IC50 values were determined with nonlinear curve fitting (GraphPad Prism 6), normalized to maximum and minimum inhibition.

[4] = system: P. falciparum stage V gametocytes (female gamete formation); experiment: Female gamete formation inhibition assay; assay type: cell-based, Plasmodium falciparum; details: 2 μM, 48 hours
Description: Mature gametocytes (>95% stage V) were treated with compounds (2 μM) for 48 hours before stimulating female gamete formation. To evaluate compound dose response, gametocytes were treated similarly at set concentrations representing a fourfold serial dilution. Female gamete activation was induced by both a temperature drop and the addition of 100 μM XA. Monoclonal anti-Pfs25 antibody (BEI Resources, catalog number MRA-28; 1:1000 dilution) conjugated to fluorescein isothiocyanate was used to detect female gametes. Image acquisition was performed using a Zeiss Axio Lab.A1 epifluorescence microscope with a 100/1.4 numerical aperture oil immersion objective and a Zeiss Axiocam 202 mono digital camera. Using a 100× objective, 30 images were taken per sample and analyzed manually. The number, size, roundness, and intensity of fluorescence of activated female gametocytes were evaluated. Compound IC50 values were determined with nonlinear curve fitting (GraphPad Prism 6), normalized to maximum and minimum inhibition.

P. falciparum Dd2-B2 = experiment: 72-hour flow cytometry EC50 assay, Dd2-B2 parental line; assay type: cell-based, Plasmodium falciparum; details: read-out: EC50 Dd2-B2 parental line
Description: (§1) Stocks of SAL-0010003 (5-benzyl), SAL-0010355 (5-aryl), and SAL-0010419 (2-alkyl) were made at 10 and 1 mM in DMSO. Aliquots in use were stored at −20°C, and long-term storage was at −80°C. All in vitro studies were done such that the final DMSO concentration was <0.5%. P. falciparum ABS parasites were cultured at 3% hematocrit in human O+ RBCs in RPMI 1640 medium, supplemented with 25 mM Hepes, 50 mg L-hypoxanthine, 2 mM L-glutamine, 0.225% sodium bicarbonate, 0.5% (w/v) AlbuMAX II (Invitrogen) and gentamycin (10 μg/ml), in modular incubator chambers (Billups-Rothenberg) at 5% O2, 5% CO2, and 90% N2 at 37°C. Dd2-B2 (obtained from T. Wellems, National Institute of Allergy and Infectious Diseases, National Institutes of Health) is a genetically homogenous line that was cloned from Dd2 by limiting dilution. To define the EC50 and EC90 values of ABS parasites, Dd2-B2 ring-stage cultures at 0.2% parasitemia and 1% hematocrit were exposed for 72 hours to a range of 10 drug concentrations that were twofold serially diluted in duplicates along with drug-free controls. Parasite survival was assessed by flow cytometry on an iQue flow cytometer (Sartorius) using SYBR Green and MitoTracker Deep Red FM (Life Technologies) as nuclear stain and vital dyes, respectively. After determination of the EC50 and EC90 values for the three compounds with the P. falciparum Dd2-B2 clone, one single-step selection was set up using 2 × 10^5 parasites in each well of a 96-well plate at a starting concentration of 3× EC90. Parasites were cleared from the culture rapidly, and cultures were screened three times weekly by flow cytometry and counted as positive for recrudescence when the overall parasitemia reached 0.3% and the parasites were visible on a blood smear. DNA was extracted from recrudescent lines using a QIAGEN QIAamp Blood Mini Kit, and libraries were prepared with the Illumina DNA Prep kit for whole-genome sequencing on the Illumina MiSeq using a V3 2 × 300–base pair flow cell.

[5] = system: P. falciparum Dd2-B2 lines selected under drug pressure; experiment: 72-hour flow cytometry EC50 assay, lines selected under drug pressure; assay type: cell-based, Plasmodium falciparum
Description: Three examples of an additional compound series developed independently [NPD-2958, NPD-3518 ([31]), and NPD-3738; fig.
as §1

HepG2 cells = experiment: HepG2 cytotoxicity; assay type: cell-based
Description: Table 1. Key activity data for the three main chemical subseries against ABS parasites, parasite fractions, and HepG2 cells. ND, not determined; ×/÷ is the geometric mean with geometric SD. | column: HepG2 EC50 (nM) (selectivity index)

Structure (SMILES)	Lag phase [1] [h]	Log PRR [1]	PCT99.9% (hours taken to kill 99.9% of the parasites) [1] [h]	Slope [1]	% inhibition gametocyte viability at 15 μM [2] [%]	% inhibition of exflagellation at 2 μM [3] [%]	% inhibition of female gamete formation at 2 μM [4] [%]	also measured
O=C1C(O)=C([C@H]2CC[C@H](c3ccc(Cl)cc3)CC2)C(=O)c2ccccc21 [Atovaquone, reference compound]	48	2.26	73.0	−0.0470 ± 0.0042	–	–	–	–
CCCCOc1ncc(Br)cc1-c1nc2c(C(C)C)n[nH]c2c(=O)[nH]1 [SAL-0010203]	–	–	–	–	0	76.7 ± 13.6	44.8 ± 1.7	–
CC(C)COc1ccc(S(=O)(=O)N(C)C)cc1-c1nc2c(C(C)C)n[nH]c2c(=O)[nH]1 [SAL-0010243]	–	–	–	–	100 ± 0	95.4 ± 12.3	80.5 ± 0.9	–
CC(C)c1n[nH]c2c(=O)[nH]c(Cc3ccccc3Cl)nc12 [NPD-2958]	–	–	–	–	–	–	–	EC50 (P. falciparum Dd2-B2): 0.32 µM; EC50 ([5]; read-out: EC50, line selected with the same NPD compound, Well 1): 2.57 µM; EC50 ([5]; read-out: EC50, line selected with the same NPD compound, Well 2): 3.37 µM; EC50 ([5]; read-out: EC50, line selected with the same NPD compound, Well 3): 2.47 µM; EC50 ([5]; read-out: EC50, line selected with the same NPD compound, Well 4): 2.44 µM; Mean fold change in EC50 ([5]; selected lines vs Dd2-B2 parental line, ±SD): 8.5 ± 1.4 fold; EC50 shift, line selected with the same NPD compound, Well 1 ([5]; vs Dd2-B2): 8.1 fold; EC50 shift, line selected with the same NPD compound, Well 2 ([5]; vs Dd2-B2): 10.5 fold; EC50 shift, line selected with the same NPD compound, Well 3 ([5]; vs Dd2-B2): 7.7 fold; EC50 shift, line selected with the same NPD compound, Well 4 ([5]; vs Dd2-B2): 7.6 fold
CNC(=O)c1cnc(OCC(C)C)c(-c2nc3c(C(C)C)n[nH]c3c(=O)[nH]2)c1 [SAL-0010301]	0	2.55	55.1	−0.0532 ± 0.0042	–	–	–	EC50 (HepG2 cells): > 25 µM; Killing profile ([1]; 10× EC50, faster than pyrimethamine, slower than chloroquine): fast/moderate killing profile
